US6017958A, “Method of treating malignant tumors with thyroxine analogues having no significant hormonal activity” (Octamer, Inc., priority 1997, dated 2000)
pIC50: −log10 of the molar value. Like-named read-outs stand apart in the source and are kept apart here.

Assays:
[1] = system: A-549 (lung cancer) cell extracts, esterase; assay: Esterase cleavage of DIME by A-549 cell extracts (TLC); type: in vitro ADME, human
Procedure: In the experiment shown in lines 1 and 2 the esterase activity of the extract occurs during 4 hours incubation with 1 μM DIME. […] Lines 3 and 4 depict the same experiments as in lines 1 and 2, except the cell extracts were prepared from intact cells preincubated for 24 hours with 1 μM DIME, then washed and extracted.
(a) mouse tissue homogenate (brain, kidney, liver lung) consisting of 0.2 g of tissue in 1.0 ml. of homogenization buffer (50 mM Tris (pH 7.4), 400 mM NaCl, 10 mM MgCl2, 1 mM EDTA, 0.5% NP-40, 0.5 mM PMSF) each were combined with 1.0 ml of MES buffer (100 mM ph 6.5) containing 20 μM [^14 C]-DIME (10.55 mCi/mmol), and the mixtures were incubated at 37° C. for 4 hours. Then to each tube was added sequentially ethyl acetate (1.5 ml), ammonium sulfate (900 mg) and 60% perchloric acid (160 μl), with vortexing after each addition. After standing for 10 minutes, phase separation was enhanced by benchtop centrifugation. The upper (ethyl acetate) layer was drawn off, and the lower aqueous and interphase material was extracted with a second portion of ethyl acetate (1.5 ml). The ethyl acetate extracts (combined) contained more than 90% of the total cpm present in the original incubate (ca. 4×10^5 cpm). […]

[2] = system: MDA-MB-231 cells; assay: Colony formation / cell killing; type: cell-based, human
Procedure: Assays for Quantitation of colony formation were performed as reported, Vidair, et al., 1986 "Evaluation of a Role for Intracellular Na^+, K^+, Ca2^+ and Mg^2+ in hyperthermic cell killing" Radiation Res. 105:187-200.

[3] = system: SK-Br-3 (mammary cancer); assay: Cytocidal action/growth inhibition, SK-Br-3; type: cell-based; details: Homo sapiens
Procedure: (§1) Seven human cancer cell lines were obtained from the American Tissue Culture Collection (Rockville, Md.) and maintained in the recommended growth media. Cells were seeded into wells (2 cm^2) at a density of 2×10^4 cells/cm^2. Various concentrations of Compounds 1-13 were added to the media at the time of seeding.
(§2) The cultures were incubated for 72 hours at 37° C. (5% CO2 atmosphere). Following incubation, cells were detached with trypsin and counted in a hemocytometer.
(§3) I100 designates the concentration at which no viable cells remained; I50 the concentration at which 50% viable cells remained, as compared to a control.
(§4) E-ras 20 cells were cultured as reported, Bauer et al., 1996, "Modification of growth related enzymatic pathways and apparent loss of tumorigenicity of a ras-transformed bovine endothelial cell line by treatment with 5-iodo-6-amino-1,2-benzopyrone (INH2 BP)" Intl. J. Oncol. 8:239-252; HT-144 (melanoma), DU-145 (prostatic cancer), HeLa (cervical cancer), HL 60 (promyelocytic leukemia), MDA-MB-231 (mammary cancer), SK-Br-3 (mammary cancer), T47D (ductal mammary cancer), A559 (lung cancer) were obtained from American Type Culture Collection (Rockville, Md.) and cultured in prescribed media. The effect of DIME was tested in cultures with a starting cell density of 2×10^4 cells per cm^2 and comparison of the effect of DIME on cell growth (intact cells identified by Trypan blue exclusion) was assayed by direct cell counting after trypsinization in a hemocytometer 72 hours after drug addition.
(§5) For DIME-exposure experiments cells were seeded into 2 cm^2 wells at a density of 2×10^4 cells/cm^2. DIME at various concentrations was added to the medium at the time of seeding. The cell cultures were then incubated for 3 days (37° C. in 5% at CO2 atmosphere).

[4] = system: MDA-MD-231 (mammary cancer); assay: Cytocidal action/growth inhibition, MDA-MB-231; type: cell-based; details: Homo sapiens
Procedure: as §1, §2, §3, §4, §5

[5] = system: protein phosphatase 2A; assay: Activation of purified protein phosphatase 2A (32P-histone H1 dephosphorylation); type: biochemical; details: 50 μM, 10 min preincubation
Procedure: 2.1 Preparation of ^32 P-labeled Histone H1 Substrate
Histone H1 was phosphorylated with protein kinase C (Upstate Biotechnology,Inc., Lake Placid, N.Y.) in a volume of 100 μL according to standard protocols. Alternatively, histone H1 was phosphorylated with p34cdc2 kinase purified from rapidly multiplying Mytilus Edulis embryos at 4-8 stage after isolation with the p^13 -Suc agarose technique (Smythe and Newport, 1992, "Coupling of Mitosis to the Completion of S Phase in Xenopus Occurs via Modulation of the Tyrosine Kinase that Phosphorylates p34cdc2," Cell 68:787-797).
125 ng purified protein phosphatase 2A (Upstate Biotechnology, Inc., Lake Placid, N.Y.; Usui et al., 1983, J. Biol. Chem. 258:10455-10463) was preincubated with thyroxine analogue (50 μM) in buffer (20 mM MOPS or Tris, pH 7.5, 1 mM MgCl2, 60 μM β-mercaptoethanol) for 10 min. at 23° C. Total reaction volume was 20 μL. ^32 P-labeled histone H1 substrate (10 μg, 10^5 cpm) was added and the dephosphorylation reaction allowed to proceed for 5 min. at 23° C., after which time the reaction was quenched by addition of 2 μL Laeimli buffer. An identical reaction containing 125 ng untreated protein phosphatase 2A was run as a control.
Phosphorylated and dephosphorylated histone H1 were separated by gel electrophoresis (12% SDS-PAGE), bands containing phosphorylated histone H1 excised and assayed for ^32 P activity via scintillation counter.
The velocity of dephosphorylation in 5 min. is an indication of the initial velocity (Vinit) of the dephosphorylation reaction.

[6] = system: noncancer cells; assay: Replication of noncancer cells in culture; type: cell-based; details: cells growing in cultures; not shown

With `COC(=O)c1cc(I)c(Oc2ccc(OC)cc2)c(I)c1` [Compound 1, Methyl 3,5-diiodo-4-(4'-methoxyphenoxy)benzoate] the “ester bond cleavage by A-549 cells” value ([1]; A-549 cells) was “readily cleave the ester bond”, the esterase induction ([1]; intact cells preincubated 24 hours with 1 μM DIME) was “esterase is not induced by DIME” and the colony forming ability ([2]; 1-2 μM, 10 days) was “profoundly diminished”. For the same compound, the “cell killing after drug removal” value ([2]; DIME removed prior to end of 8 hours incubation) was “cell killing was prevented and drug-induced morphologic changes were completely reversed”, the pIC50 ([3]; SK-BR-3, 72 h, day 3, Table 11, read-out: I50 (day 3)) was 6.22 and the pIC50 ([3]; SK-BR-3, 72 h, Table 4, read-out: I50) was 6.22. For the same compound, the IC100 ([3]; SK-BR-3, 72 h, Table 4, read-out: I100 (no viable cells remained)) was 5 µM, the pIC50 ([4]; MDA-MB-231, 72 h, day 3, Table 11, read-out: I50 (day 3)) was 6.40 and the pIC50 ([4]; MDA-MB-231, 72 h, Table 4, read-out: I50) was 6.40. For the same compound, the IC100 ([4]; MDA-MB-231, 72 h, Table 4, read-out: I100 (no viable cells remained)) was 3 µM, the “Activity/5 min (initial velocity of histone H1 dephosphorylation)” value ([5]; control 10217 ± 1708, average of three samples) was 24655 ± 8600 cpm and the “increase of Vinit of histone H1 dephosphorylation” value [5] was “more than doubles Vinit”. For the same compound, the “inhibition of replication of noncancer cells” value [6] was “inhibited to varying degrees”.
